Data on twelve compounds can be found in patent US20020051982A1, “Novel BLR molecules affecting antibiotic susceptibility” (priority 2000, published 2002).

≈ marks a conversion by molar mass, not a printed value. Read-outs that look alike come from different tables or passages of the source. Some results are limits rather than exact numbers.

Common to all, as to type: cell-based, E. coli
In assay [1] the test system is RW583. The assay can be described thus: Antibiotic susceptibility of the blr::TnphoA insertion mutant compared with the parent. The following applies: for effect of the insertion on susceptibility: transconjugant RW583 (blr::TnphoA) versus parental strain. An excerpt:
Donor E. coli K 12 strain S17-1 λpir (Tp^rSm^rrecA, thi, pro, hsdR^−M^+RP4;2-Tc:Mu:KmTn7,λpir; George and Levy. 1983. J Bacteriol 1983 Aug; 155 (2): 531-48) containing a conjugatable transposon-delivery plasmid pUT/Km (able to replicate only in the donor) which bore mini-Tn5phoA (de Lorenzo, V. & Timmis, K. N. Meth. Enzymol. 235, 386-404 (1994)) was mated with recipient ASS111rif and plated on kanamycin/rifamycin. Transconjugant RW583 had both PhoA activity and a 2-4 fold enhanced susceptibility to a wide spectrum of antibiotics […] including cephalosporins and imipenem (Table 1) as well as cycloserine and bacitracin, while susceptibility to tetracycline, chloramphenicol, nalidixic acid, norfloxacin, gentamicin, fosfomycin or valinomycin was not affected. The insertion was transduced (Provence, D. L. & Curtiss, R. I. in Methods for General and Molecular Bacteriology (ed. Gerhardt, P., Murry, R. G. E., Wood, W. A. & Kreig, N. R.) 317-347 (American Society for Microbiology, Washington D.C. 1994)) by bacteriophage P1 into other E. coli K12 strains, where it had the same effect on susceptibility (Table 1).
The cloned 358 base pairs region restored the wild type phenotype to the hypersusceptible strain bearing blr::TnphoA, regardless of orientation with respect to the lac promoter (Table 1, pRW23C vs pRW23D). The HindIII/PstI fragment of pACYC 184 (carrying the tet promoter and part of the tet gent) was replaced by the HindIII/PstI fragment from pRW23D. […] Therefore the 358 base pairs region appeared to contain all the information needed for complementation.

Assay [2] concerns AW1045. The assay can be described thus: E-test susceptibility on LB agar, strain AW1045. Also noted: unit not given here.
Assay [3] relates to AW1045 blr::TnphoA. The assay can be described thus: E-test susceptibility on LB agar, strain AW1045 blr::TnphoA. Set-up: unit not given here.
For assay [4], the system named is ASS111rif blr::TnphoA (=RW583). The assay can be described thus: E-test susceptibility on LB agar, strain RW583 without or with plasmids. Set-up: unit not given here.
Assay [5] relates to WY100. In words: E-test susceptibility on LB agar, strain WY100. Set-up: unit not given here.
Assay [6] concerns WY100 blr::TnphoA. In words: E-test susceptibility on LB agar, strain WY100 blr::TnphoA. Set-up: unit not given here.
For assay [7], the system named is ASS11rif (blr^+). In words: MIC for ampicillin, complementation test, wild type host. The following applies: Escherichia coli.
The subject of assay [8] is S26su^+ blr::TnphoA. In words: MIC for ampicillin, leuX amber suppressor host S26su^+, blr::TnphoA.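 Further: MIC in µg per mL.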
Assay [9] deals with S26su^+ blr^+. In words: MIC for ampicillin, leuX amber suppressor host S26su^+, blr^+.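 Further: MIC in µg per mL.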 The following applies: plasmid None.
The subject of assay [10] is S26 blr::TnphoA. The assay can be described thus: MIC for ampicillin, non-suppressor S26 host, blr::TnphoA.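 Further: MIC in µg per mL.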
The subject of assay [11] is S26 blr^+. In words: MIC for ampicillin, non-suppressor S26 host, blr^+.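 Further: MIC in µg per mL.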 The note with it: plasmid None.
In assay [12] the test system is blr::TnphoA insertion mutant. The assay can be described thus: Decline in optical density of growing cultures. The following applies: insertion mutant versus wild type.
Assay [13] concerns RW583 (ASS111rifblr::TnphoA). The assay can be described thus: MIC for ampicillin, complementation in RW583. The note with it: Escherichia coli.
[14] abbreviates: RW58s + pRW23D (blr^+, 358 base pairs).
Where [15] appears, read: RW583 + pRW23A (blr^+, 680 base pairs).
The mark [16] stands for this setting: RW583 + pRW23C (blr^+, 358 base pairs).
Setting [17] is: strain ASS111rif blr::TnphoA (=RW583), no plasmid.
[18] abbreviates: Blr::TnphoA, pL24tag1 (amber blr).
Setting [19] is: Blr::TnphoA, pL39tag3 (amber L39 blr).
[20] abbreviates: blr::TnphoA, pRW23C (wild type blr).

What is called MIC is the least concentration at which growth counts as inhibited.

As for `CCn1cc(C(=O)O)c(=O)c2ccc(C)nc21` [nalidixic acid], the “effect of the insertion on susceptibility” value (“effect of the insertion” for short) in assay [1] is “not affected”.
As to `CCN1CCN(C(=O)N[C@@H](C(=O)N[C@@H]2C(=O)N3[C@@H]2SC(C)(C)[C@@H]3C(=O)O)c2ccccc2)C(=O)C1=O` [Pipericillin], the “susceptibility (E-test strip)” value in [2] was 1.0; in assay [3] it was 0.25; in assay [4] (setting [14]), 1.0; in assay [4] (RW583 + pACYC184 (vector)), 0.25; in assay [4] (setting [15]) it was 1.5; in [4] (setting [16]), 1.0. Besides, the “susceptibility (E-test strip)” value in assay [4] (RW583 + pUC19Sp^R (vector)) was 1.25; in assay [4] (setting [17]), 0.25; in assay [5], 1.5; in assay [6], 0.75.
Consider `C[C@@H](O)[C@H]1C(=O)N2C(C(=O)O)=C(SCCN=CN)C[C@H]12` [Imipene, imipenem], for which the “susceptibility (E-test strip)” value was found to be 0.38 in assay [2]; 0.125 in [3]; 0.25 in assay [4] (setting [14]); 0.19 in assay [4] (RW583 + pACYC184 (vector)); 0.38 in assay [4] (setting [15]); 0.19 in assay [4] (setting [16]). Further, the “susceptibility (E-test strip)” value is recorded as 0.125 in assay [4] (RW583 + pUC19Sp^R (vector)), 0.19 in assay [4] (setting [17]), 0.25 in assay [5] and 0.125 in assay [6].
As for `CO/N=C(\C(=O)N[C@@H]1C(=O)N2C(C(=O)[O-])=C(C[N+]3(C)CCCC3)CS[C@H]12)c1csc(N)n1` [Cefepime], the “susceptibility (E-test strip)” value is given as 0.023 in assay [2]; less than 0.016 in [3]; 0.023 in assay [4] (setting [14]); less than 0.016 in assay [4] (RW583 + pACYC184 (vector)); 0.032 in assay [4] (setting [15]); 0.023 in assay [4] (setting [16]). Also, the “susceptibility (E-test strip)” value is less than 0.016 in assay [4] (RW583 + pUC19Sp^R (vector)), less than 0.016 in assay [4] (setting [17]), 0.047 in assay [5] and less than 0.016 in assay [6].
With `CCn1cc(C(=O)O)c(=O)c2cc(F)c(N3CCNCC3)cc21` [norfloxacin], the “effect of the insertion” value in assay [1] is given as “not affected”.
Still for that read-out and setting: the result for `C[C@@H]1O[C@@H]1P(=O)(O)O` [fosfomycin] reads “not affected”.
As to `CO/N=C(\C(=O)N[C@@H]1C(=O)N2C(C(=O)O)=C(CSc3nc(=O)c(=O)[nH]n3C)CS[C@H]12)c1csc(N)n1` [Ceftriaxone], the “susceptibility (E-test strip)” value in [2] is listed as 0.032; in assay [3] it was less than 0.016; in assay [4] (setting [14]) it was 0.016; in [4] (RW583 + pACYC184 (vector)) it was less than 0.016; in assay [4] (setting [15]), 0.023; in assay [4] (setting [16]), 0.016. The “susceptibility (E-test strip)” value in [4] (RW583 + pUC19Sp^R (vector)) is given as less than 0.016; in assay [4] (setting [17]) it was less than 0.016; in [5], 0.125; in assay [6], 0.32.
Consider `O=C(N[C@H](CO)[C@H](O)c1ccc([N+](=O)[O-])cc1)C(Cl)Cl` [chloramphenicol], for which the “effect of the insertion” value in [1] is “not affected”.
Consider `CC1(C)S[C@@H]2[C@H](NC(=O)[C@H](N)c3ccccc3)C(=O)N2[C@H]1C(=O)O` [Ampicillin], for which the MIC is 1 µg/mL (≈ 2.86 µM) in [7] (host ASS11rif blr^+, plasmid pRW23C (wild type blr), read-out: MIC for ampicillin); 1.1 µg/mL (≈ 3.15 µM) in assay [7] (read-out: MIC for ampicillin, host ASS11rif blr^+, plasmid None); 0.13 µg/mL (≈ 0.372 µM) in assay [13] (host RW583, plasmid None); 1.1 µg/mL (≈ 3.15 µM) in assay [13] (host RW583, plasmid PQ13tag1 (amber Q13 blr)); 1.2 µg/mL (≈ 3.43 µM) in [13] (host RW583, plasmid PV20tag1 (amber V20 blr)); 0.13 µg/mL (≈ 0.372 µM) in assay [13] (host RW583, plasmid pL24tag1 (amber L24 blr)). The MIC in assay [13] (host RW583, plasmid pRW23C (wild type blr)) amounted to 1.1 µg/mL (≈ 3.15 µM); in assay [13] (host RW583, plasmid pUC19-Sp^R (none)), 0.09 µg/mL (≈ 0.258 µM). Also, the “susceptibility (E-test strip)” value is recorded as 3 in assay [2]; 0.75 in [3]; 2 in assay [4] (setting [14]); 0.5 in assay [4] (RW583 + pACYC184 (vector)); 3 in assay [4] (setting [15]); 2 in assay [4] (setting [16]). The “susceptibility (E-test strip)” value in [4] (RW583 + pUC19Sp^R (vector)) stood at 0.25; in [4] (setting [17]) it was 0.5; in [5] it was 3; in [6] it was 0.75. For the same compound, the MIC for ampicillin was 2.1 µg·mL in [8] (setting [18]); 0.2 µg·mL in assay [8] (setting [19]); 3.0 µg·mL in assay [8] (setting [20]); 1.1 µg·mL in assay [8] (blr::TnphoA, pUC19-Sp^R (none)); 1.0 µg·mL in assay [8] (blr::TnphoA, plasmid None); 3.5 µg·mL in assay [9]. For the same compound, the MIC for ampicillin in assay [10] (setting [18]) was found to be 0.9 µg·mL; in assay [10] (setting [19]), 0.2 µg·mL; in assay [10] (setting [20]), 2.8 µg·mL; in assay [10] (blr::TnphoA, pUC19-Sp^R (none)) it was 0.5 µg·mL; in [10] (blr::TnphoA, plasmid None), 0.5 µg·mL; in assay [11] it was 3.3 µg·mL. The “drug concentration required for decline in optical density of growing cultures” value in [12] is on record as “lower drug concentration”. Also, the “restoration of resistance by plasmid” value in assay [1] (blr::TnphoA strain with pRWA7 (no vector-derived promoter for blr)) is “completely restored resistance”.
For the compound `CO[C@@]1(NC(=O)Cc2cccs2)C(=O)N2C(C(=O)O)=C(COC(N)=O)CS[C@@H]21` [Cefoxitin], the “susceptibility (E-test strip)” value in assay [2] turned out to be 3; in assay [3], 1.5; in assay [4] (setting [14]), 1.5; in assay [4] (RW583 + pACYC184 (vector)), 0.75; in assay [4] (setting [15]) it was 2; in assay [4] (setting [16]), 1.5. The “susceptibility (E-test strip)” value in [4] (RW583 + pUC19Sp^R (vector)) is recorded as 0.75; in assay [4] (setting [17]), 1.0; in assay [5], 3; in [6], 1.5.
As to gentamicin, the “effect of the insertion” value in assay [1] is “not affected”.
The same measure, in the same setting: the same measure for `CC(C)[C@@H]1NC(=O)[C@H](C)OC(=O)[C@@H](C(C)C)NC(=O)[C@@H](C(C)C)OC(=O)[C@H](C(C)C)NC(=O)[C@H](C)OC(=O)[C@@H](C(C)C)NC(=O)[C@@H](C(C)C)OC(=O)[C@H](C(C)C)NC(=O)[C@H](C)OC(=O)[C@@H](C(C)C)NC(=O)[C@@H](C(C)C)OC1=O` [valinomycin]: “not affected”.
